Data as given in patent US11759455B2, “Substituted 1H-imidazo[4,5-b]pyridin-2(3H)-ones and their use as GLUN2B receptor modulators” (JANSSEN PHARMACEUTICA NV, priority 2016, dated 2023).
Where two headings read alike, the source gives them in different places.

Biological target: T1, human GluN1/GluN2B NMDA receptors (Homo sapiens, UniProt Q13224)
T1 construct: expressed in transfected cells
Assay: Cell-based calcium flux (FLIPR) assay on cloned human NR1/NR2B ion channels expressed in mammalian cells (standard and HTS buffer variants);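 note: stable Tet-On inducible cell line, Ca2+ influx triggered by glutamate at about EC40 plus 10 µM glycine, fluorescent dye read-out over 5 min, normalized to control wells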

[1] = HTS assay buffer (1.5 mM MgCl2 in dye loading buffer; 150 mM NaCl, 3 mM KCl in assay buffer), human GluN1/GluN2B, read-out: NR2B IC50 (μM) HTS assay
[2] = standard assay buffer (0.5 mM MgCl2 dye loading; 137 mM NaCl, 4 mM KCl assay buffer), human GluN1/GluN2B cells, read-out: NR2B IC50 (μM) standard assay
[3] = standard assay buffer (0.5 mM MgCl2 in dye loading buffer; 137 mM NaCl, 4 mM KCl in assay buffer), human GluN1/GluN2B, read-out: NR2B IC50 (μM) standard assay

T1 sequence (Q13224 27-1484, other chains not shown): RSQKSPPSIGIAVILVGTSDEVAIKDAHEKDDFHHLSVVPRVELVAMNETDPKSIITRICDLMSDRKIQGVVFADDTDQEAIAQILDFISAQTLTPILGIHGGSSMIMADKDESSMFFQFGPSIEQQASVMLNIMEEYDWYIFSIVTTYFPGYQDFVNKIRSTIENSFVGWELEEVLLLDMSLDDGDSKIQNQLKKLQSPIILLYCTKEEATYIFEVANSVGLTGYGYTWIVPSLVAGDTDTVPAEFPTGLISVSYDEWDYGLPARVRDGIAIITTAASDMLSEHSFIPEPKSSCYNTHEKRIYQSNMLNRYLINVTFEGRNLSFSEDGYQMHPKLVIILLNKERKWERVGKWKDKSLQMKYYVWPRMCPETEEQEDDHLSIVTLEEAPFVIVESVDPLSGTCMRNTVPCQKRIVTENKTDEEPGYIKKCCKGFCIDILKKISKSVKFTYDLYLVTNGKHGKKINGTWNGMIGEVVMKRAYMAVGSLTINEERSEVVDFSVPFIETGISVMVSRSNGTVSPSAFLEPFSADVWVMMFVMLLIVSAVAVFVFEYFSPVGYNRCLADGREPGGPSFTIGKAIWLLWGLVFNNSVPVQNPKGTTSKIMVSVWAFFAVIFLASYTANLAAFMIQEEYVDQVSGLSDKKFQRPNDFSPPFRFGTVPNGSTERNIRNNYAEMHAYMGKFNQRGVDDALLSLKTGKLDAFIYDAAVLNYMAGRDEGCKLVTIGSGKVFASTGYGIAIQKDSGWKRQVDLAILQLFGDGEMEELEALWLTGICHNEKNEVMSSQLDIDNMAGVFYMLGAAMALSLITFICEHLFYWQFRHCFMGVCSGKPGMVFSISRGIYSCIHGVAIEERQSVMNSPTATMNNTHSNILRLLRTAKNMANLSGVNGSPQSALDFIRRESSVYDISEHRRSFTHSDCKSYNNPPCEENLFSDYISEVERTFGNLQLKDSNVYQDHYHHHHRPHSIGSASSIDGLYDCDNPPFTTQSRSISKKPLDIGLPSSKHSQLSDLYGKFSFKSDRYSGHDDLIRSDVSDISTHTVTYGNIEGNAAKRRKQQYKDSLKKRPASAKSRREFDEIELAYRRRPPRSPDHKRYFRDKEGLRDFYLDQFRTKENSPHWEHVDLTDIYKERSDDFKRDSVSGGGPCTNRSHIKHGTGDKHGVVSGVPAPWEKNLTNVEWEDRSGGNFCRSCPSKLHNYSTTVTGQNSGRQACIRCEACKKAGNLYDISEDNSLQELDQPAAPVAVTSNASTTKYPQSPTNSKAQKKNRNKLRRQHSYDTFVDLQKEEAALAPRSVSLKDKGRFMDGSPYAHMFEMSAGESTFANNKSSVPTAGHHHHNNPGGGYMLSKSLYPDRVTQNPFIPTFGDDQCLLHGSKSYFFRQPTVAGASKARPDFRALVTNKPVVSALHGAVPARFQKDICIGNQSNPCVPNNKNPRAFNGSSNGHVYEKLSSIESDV

IC50 [2] [µM] | IC50 [3] [µM] | Compound | other results
1.98 |  | Cc1cnc(Cn2c(=O)[nH]c3ncc(-c4cccc(C(F)(F)F)c4)cc32)c(F)c1 [Example 234, 1-[(3-Fluoro-5-methyl-2-pyridyl)methyl]-6-[3-(trifluoromethyl)phenyl]-3H-imidazo[4,5-b]pyridin-2-one] | 
0.81 |  | Cc1c(F)ccc(-c2cnc3c(c2)n(Cc2ncccn2)c(=O)n3C)c1F [Example 65, 6-(2,4-Difluoro-3-methyl-phenyl)-3-methyl-1-(pyrimidin-2-ylmethyl)imidazo[4,5-b]pyridin-2-one] | 
 | 0.017 | CCC(=O)Cn1c(=O)n(C)c2ncc(-c3ccc(F)c(C)c3)cc21 [Example 389, 6-(4-Fluoro-3-methyl-phenyl)-3-methyl-1-(2-oxobutyl)imidazo[4,5-b]pyridin-2-one] | 
 | 6.64 | Cc1cc(-c2cnc3c(c2)n(Cc2cncc(Cl)c2)c(=O)n3C)sc1Cl [Example 372, 6-(5-Chloro-4-methyl-2-thienyl)-1-[(5-chloro-3-pyridyl)methyl]-3-methyl-imidazo[4,5-b]pyridin-2-one] | 
 | 1.31 | Cc1ccc(-c2cnc3c(c2)n(Cc2cnn(C)c2)c(=O)n3C)s1 [Example 555, 3-Methyl-1-[(1-methylpyrazol-4-yl)methyl]-6-(5-methyl-2-thienyl)imidazo[4,5-b]pyridin-2-one] | 
 | 0.036 | Cn1c(=O)n(Cc2cncc(F)c2)c2cc(-c3ccc(F)c(OC(F)F)c3)cnc21 [Example 547, 6-[3-(Difluoromethoxy)-4-fluoro-phenyl]-1-[(5-fluoro-3-pyridyl)methyl]-3-methyl-imidazo[4,5-b]pyridin-2-one] | 
 | 0.096 | Cn1c(=O)n(Cc2cncc(Cl)c2)c2cc(-c3ccc(F)c(F)c3)cnc21 [Example 369, 1-[(5-Chloro-3-pyridyl)methyl]-6-(3,4-difluorophenyl)-3-methyl-imidazo[4,5-b]pyridin-2-one] | 
3.56 |  | Cn1ccc(Cn2c(=O)[nH]c3ncc(-c4ccc(F)c(F)c4)cc32)n1 [Example 131, 6-(3,4-Difluorophenyl)-1-[(1-methylpyrazol-3-yl)methyl]-3H-imidazo[4,5-b]pyridin-2-one] | 

Continued, molecule first:

Compound | IC50 [2] [µM] | IC50 [3] [µM] | other results
CCOc1cccc(-c2cnc3[nH]c(=O)n(CC(=O)c4cccs4)c3c2)c1 [Example 463, 6-(3-Ethoxyphenyl)-1-[2-oxo-2-(2-thienyl)ethyl]-3H-imidazo[4,5-b]pyridin-2-one] |  |  | IC50 [1]: 0.36 µM
O=c1[nH]c2ncc(-c3ccccc3)cc2n1CCN1CC(F)C1 [Example 188, 1-[2-(3-Fluoroazetidin-1-yl)ethyl]-6-phenyl-3H-imidazo[4,5-b]pyridin-2-one] | 1.44 |  | 
Cn1c(=O)n(CC(=O)N2CCC2)c2cc(-c3cccc(C(F)(F)F)c3)cnc21 [Example 408, 1-[2-(Azetidin-1-yl)-2-oxo-ethyl]-3-methyl-6-[3-(trifluoromethyl)phenyl]imidazo[4,5-b]pyridin-2-one] |  | 0.042 | 
CCOc1ccc(F)cc1-c1cnc2[nH]c(=O)n(Cc3ccccc3C#N)c2c1 [Example 489, 2-[[6-(2-Ethoxy-5-fluoro-phenyl)-2-oxo-3H-imidazo[4,5-b]pyridin-1-yl]methyl]benzonitrile] |  |  | IC50 [1]: 1.28 µM
Cc1ccc(-c2cnc3c(c2)n(CC(=O)N(C)C)c(=O)n3C)s1 [Example 78, N,N-Dimethyl-2-[3-methyl-6-(5-methyl-2-thienyl)-2-oxo-imidazo[4,5-b]pyridin-1-yl]acetamide] | 0.043 |  | 
Cn1c(=O)n(CC(=O)N2CCC2)c2cc(-c3ccc(CO)s3)cnc21 [Example 89, 1-[2-(Azetidin-1-yl)-2-oxo-ethyl]-6-[5-(hydroxymethyl)-2-thienyl]-3-methyl-imidazo[4,5-b]pyridin-2-one] | 0.549 |  | 
COc1ccc(-c2cnc3[nH]c(=O)n(CC(=O)NC4CC4)c3c2)c(OC)c1 [Example 454, N-Cyclopropyl-2-[6-(2,4-dimethoxyphenyl)-2-oxo-3H-imidazo[4,5-b]pyridin-1-yl]acetamide] |  |  | IC50 [1]: 1.94 µM
O=C(Cn1c(=O)[nH]c2ncc(-c3cccc(C(F)(F)F)c3)cc21)N1CCOCC1 [Example 204, 1-(2-Morpholino-2-oxo-ethyl)-6-[3-(trifluoromethyl)phenyl]-3H-imidazo[4,5-b]pyridin-2-one] | 0.037 |  | 
COc1ccc(-c2cnc3[nH]c(=O)n(Cc4cc(C)on4)c3c2)cc1F [Example 519, 6-(3-Fluoro-4-methoxy-phenyl)-1-[(5-methylisoxazol-3-yl)methyl]-3H-imidazo[4,5-b]pyridin-2-one] |  | 0.139 | 
COc1cc(F)ccc1-c1cnc2[nH]c(=O)n(CC(N)=O)c2c1 [Example 433, 2-[6-(4-Fluoro-2-methoxy-phenyl)-2-oxo-3H-imidazo[4,5-b]pyridin-1-yl]acetamide] |  |  | IC50 [1]: 0.867 µM
Cc1cc(Cn2c(=O)[nH]c3ncc(-c4ccccc4)cc32)no1 [Example 11, 1-[(5-Methylisoxazol-3-yl)methyl]-6-phenyl-3H-imidazo[4,5-b]pyridin-2-one] | 0.088 |  | 
O=C(Cn1c(=O)[nH]c2ncc(-c3ccc(Cl)cc3)cc21)c1cccs1 [Example 459, 6-(4-Chlorophenyl)-1-[2-oxo-2-(2-thienyl)ethyl]-3H-imidazo[4,5-b]pyridin-2-one] |  |  | IC50 [1]: 1.42 µM
O=c1[nH]c2ncc(-c3cccc(OC(F)F)c3)cc2n1Cc1cccnc1 [Example 300, 6-[3-(Difluoromethoxy)phenyl]-1-(3-pyridylmethyl)-3H-imidazo[4,5-b]pyridin-2-one] | 0.03 |  | 
O=C(Cn1c(=O)[nH]c2ncc(-c3cccc(C(F)(F)F)c3)cc21)N1CCCCC1 [Example 206, 1-[2-Oxo-2-(1-piperidyl)ethyl]-6-[3-(trifluoromethyl)phenyl]-3H-imidazo[4,5-b]pyridin-2-one] | 0.163 |  | 
Cc1c(-c2cnc3[nH]c(=O)n(CC(=O)N4CCC4)c3c2)cccc1C(F)(F)F [Example 329, 1-[2-(Azetidin-1-yl)-2-oxo-ethyl]-6-[2-methyl-3-(trifluoromethyl)phenyl]-3H-imidazo[4,5-b]pyridin-2-one] |  | 0.75 | 
Cn1c(=O)n(CC(=O)NC2(C)CC(F)(F)C2)c2cc(-c3cccc(C(F)(F)F)c3)cnc21 [Example 198, N-(3,3-Difluoro-1-methyl-cyclobutyl)-2-[3-methyl-2-oxo-6-[3-(trifluoromethyl)phenyl]imidazo[4,5-b]pyridin-1-yl]acetamide] | 5.01 |  | 
Cc1ccc(Cn2c(=O)[nH]c3ncc(-c4cccc(C(F)(F)F)c4)cc32)cn1 [Example 235, 1-[(6-Methyl-3-pyridyl)methyl]-6-[3-(trifluoromethyl)phenyl]-3H-imidazo[4,5-b]pyridin-2-one] | 0.256 |  | 
COc1ccc(Cn2c(=O)[nH]c3ncc(-c4cc(F)cc(F)c4)cc32)cc1 [Example 508, 6-(3,5-Difluorophenyl)-1-[(4-methoxyphenyl)methyl]-3H-imidazo[4,5-b]pyridin-2-one] |  |  | IC50 [1]: 0.463 µM
COc1cccc(Cn2c(=O)[nH]c3ncc(-c4cc(C)cs4)cc32)c1 [Example 507, 1-[(3-Methoxyphenyl)methyl]-6-(4-methyl-2-thienyl)-3H-imidazo[4,5-b]pyridin-2-one] |  |  | IC50 [1]: 8.1 µM
COCCNC(=O)Cn1c(=O)[nH]c2ncc(-c3ccc(F)cc3OC)cc21 [Example 446, 2-[6-(4-Fluoro-2-methoxy-phenyl)-2-oxo-3H-imidazo[4,5-b]pyridin-1-yl]-N-(2-methoxyethyl)acetamide] |  | 0.204 | 
